The values below come from patent US20080103164A1, “USEFUL COMPOUNDS FOR HPV INFECTION” (priority 2004, published 2008).

The assay deals with episomal HPV-16 DNA in W12-20850 cells. The experiment in a line: W-12 cellular assay: episomal HPV-16 DNA quantified by hybrid capture in W12-20850 cells. It counts as cell-based, HPV16. The note with it: Human papillomavirus 16, 96 h, four days incubation, inhibition of episomal HPV-16 DNA relative to untreated control. The procedure:
Compounds of the current invention are believed useful in the treatment and/or prophylaxis of conditions and diseases associated with HPV infection. Activity mediated through HPV was determined using the following W-12 cellular assay. The […] cell line used contains HPV16 DNA and was derived from a low-grade cervical dysplasia tissue by Margaret Stanley and subsequently clonally selected by Paul Lambert (University of Wisconsin). One of these clones, […]-20850, contains 1000 copies of episomal HPV16 DNA and was used in the cell-based assay. […]-20850 cells were routinely cultured with a gamma-irradiated (6000 rads) feeder layer of 3T3 cells. Assays, however, were run in the absence of a 3T3 feeder layer. […]-20850 and 3T3 cells were routinely split when they were sub-confluent. […]-20850 were grown in […] Medium which is constituted of 25% DMEM (Gibco BRL, Cat # 12430-047), 75% F12 Media (Gibco BRL, Cat # 11765-021) and 2.5% FBS. The additives include […] Adenine (Sigma, Cat # A-9795), […] Hydrocortisone (Calbiochem, Cat # 386698), […] Bovine Insulin (Sigma, Cat # 1-1882), 8.4 ng/ml cholera toxin (Fluka, Cat # 26694) and 10 ng/ml EGF (Invitrogen, Cat # 13247-051). 3T3 cells were grown in DMEM containing 10% FBS. Cell lines were incubated at 37° C., in the presence of 5% CO2. For the assay, […]-20850 cells were seeded into a 96 well plate-containing compound. Plates were incubated at 37° C. in the presence of 5% CO2, for four days. On the fourth day, cells were lysed and the amount of episomal HPV-16 DNA was quantified using a non-radioactive hybrid capture technique with HPV-16 specific capture and detection probes. The percent inhibition relative to untreated control cells was then determined. The hybrid capture assay is run in a 96 well plate format. Hybridization plates (Nunc Maxisorb Cat # 450320) were coated with a mixture of capture probe and ReactiBind solution for at least 4 hours and then washed with 0.2×SSC, 0.05% Tween-20 (SSCT) prior to blocking with 150 μl/well of 0.2 N NaOH, 1% Igepal, 10 mg/ml hsDNA for 6-8 hours. The hybridization was carried out by mixing 27 μl of lysed cells with 45 μl of denatured detection probe in 6M guanidine isothiocyanate. To prevent evaporation, 50 μl of mineral oil was added to each well. The plate was then heated to 90° C. for 6.5 minutes and the hybridization continued at 42° C. overnight. Assay plates were washed 6 times with SSC/T. Anti-digoxigenin HRP-conjugated Ab (Boehringer Mannheim 1207733, 1:5000) was incubated in the wells for 30 min at room temperature and washed with PBS/0.05% Tween-20. SuperSignal LBA substrate (Pierce Cat # 37070) was added, and chemiluminescence was measured using Wallac 1420 Victor plate reader.
For orientation: IC50 means the concentration that inhibits the measured activity by half. For `c1ccc(-c2ccnc(N3CCc4c([nH]c5ccccc45)C3c3ccccc3)n2)cc1` (stereo not drawn) [Example 35, 1-phenyl-2-(4-phenyl-2-pyrimidinyl)-2,3,4,9-tetrahydro-1H-β-carboline], the IC50 is 2000 nM.
In turn, `c1ccc(-c2ccnc(N3CCc4c([nH]c5ccccc45)C3c3ccc4c(c3)CCO4)n2)cc1` (stereo not drawn) [Example 36, 1-(2,3-dihydro-1-benzofuran-5-yl)-2-(4-phenyl-2-pyrimidinyl)-2,3,4,9-tetrahydro-1H-β-carboline] displayed an IC50 of 3000 nM.
Next, `c1cncc(-c2ccnc(N3CCc4c([nH]c5ccccc45)C3c3ccc4c(c3)CCO4)n2)c1` (stereo not drawn) [Example 37, 1-(2,3-dihydro-1-benzofuran-5-yl)-2-[4-(3-pyridinyl)-2-pyrimidinyl]-2,3,4,9-tetrahydro-1H-β-carboline]: 4000 nM; `c1ccc2c3c([nH]c2c1)C(c1ccc2c(c1)CCO2)N(c1nccc(-n2ccnc2)n1)CC3` (stereo not drawn) [Example 38, 1-(2,3-dihydro-1-benzofuran-5-yl)-2-[4-(1H-imidazol-1-yl)-2-pyrimidinyl]-2,3,4,9-tetrahydro-1H-β-carboline]: 3000 nM; `Cc1cn(-c2ccnc(N3CCc4c([nH]c5ccccc45)C3c3ccc4c(c3)CCO4)n2)cn1` (stereo not drawn) [Example 39, 1-(2,3-dihydro-1-benzofuran-5-yl)-2-[4-(4-methyl-1H-imidazol-1-yl)-2-pyrimidinyl]-2,3,4,9-tetrahydro-1H-β-carboline]: 2000 nM.
